Measurements taken from ChEMBL document CHEMBL5244230, “Artemisinin-derived hybrids and their anticancer activity” (Eur J Med Chem, 2020).
≈ marks a conversion by molar mass, not a printed value.

Columns and labels:
HeLa [1] = test: Potency index, ratio of artesunate IC50 to test compound IC50 for antiproliferative activity against human HeLA cells assessed as inhibition of cell growth; format: functional
HCT-116 [2] = test: Potency index, ratio of artesunate IC50 to test compound IC50 for antiproliferative activity against human HCT-116 cells assessed as inhibition of cell growth; format: functional
HCT-116 [3] = test: Antiproliferative activity against human HCT-116 cells; format: functional, cell-based
HeLa [4] = test: Antiproliferative activity against human HeLa cells; format: functional, cell-based
[5] = Antiproliferative activity against human 1205Lu cells; format: functional, cell-based
[6] = Cytotoxicity against human HFF cells; format: toxicity, cell-based
[7] = Potency index, ratio of artesunate IC50 to test compound IC50 for antiproliferative activity against human 1205Lu cells assessed as inhibition of cell growth; format: functional
MCF7 [8] = test: Antiproliferative activity against doxorubicin resistant human MCF7 cells; format: functional, cell-based
[9] = Antiproliferative activity against mouse P388 cells assessed as reduction in cell viability measured after 72 hrs; format: functional, cell-based; settings: 72 h
HL-60 [10] = test: Antiproliferative activity against human HL-60 cells assessed as reduction in cell viability measured after 72 hrs; format: functional, cell-based; settings: HL-60, 72 h
P388/ADR [11] = test: Antiproliferative activity against mouse P388/ADR cells assessed as reduction in cell viability measured after 72 hrs; format: functional, cell-based; settings: 72 h
P388 [12] = test: Potency index, ratio of test compound IC50 to dihydroartemisinin IC50 for antiproliferative activity against mouse P388 cells assessed as reduction in cell viability measured after 72 hrs; format: functional
HL-60 [13] = test: Potency index, ratio of test compound IC50 to dihydroartemisinin IC50 for antiproliferative activity against human HL-60 cells assessed as reduction in cell viability measured after 72 hrs; format: functional
P388/ADR [14] = test: Potency index, ratio of test compound IC50 to dihydroartemisinin IC50 for antiproliferative activity against mouse P388/ADR cells assessed as reduction in cell viability measured after 72 hrs; format: functional
MCF7 [15] = test: Anticancer activity against human MCF7 cells; format: functional, cell-based
[16] = biological target: c-Jun N-terminal kinase, JNK (Homo sapiens, UniProt P45983+P53779+P45984); test: Inhibition of N-terminal c-Jun phosphorylation in human HeLa cells; format: cell-based
MDA-MB-231 [17] = test: Antiproliferative activity against human MDA-MB-231 cells assessed as reduction in cell viability; format: functional, cell-based
A549 [18] = test: Antiproliferative activity against human A549 cells; format: functional, cell-based
[19] = Antiproliferative activity against human Renal carcinoma cell; format: functional, cell-based
Ovarian cancer cell line = test: Antiproliferative activity against human Ovarian cancer cell line; format: functional, cell-based
Melanoma cell line = test: Antiproliferative activity against human Melanoma cell line; format: functional, cell-based
[20] = Antiproliferative activity against human leukaemia cell line; format: functional, cell-based
K562 = test: Antiproliferative activity against human K562 cells; format: functional, cell-based
PC-3 = test: Antiproliferative activity against human PC-3 cells; format: functional, cell-based
A-431 = test: Antiproliferative activity against human A-431 cells; format: functional, cell-based
MDA-MB-231 [21] = test: Antiproliferative activity against human MDA-MB-231 cells; format: functional, cell-based; settings: Homo sapiens, MDA-MB-231
COLO 205 = test: Antiproliferative activity against human COLO 205 cells; format: functional, cell-based
HEK293 = test: Antiproliferative activity against human HEK293 cells; format: functional, cell-based
HCT-15 [22] = test: Antiproliferative activity against human HCT-15 cells assessed as inhibition of cell growth at 50 uM relative to control; format: functional; parameters: scale not given: the % may be the effect or the level left
HepG2 [23] = test: Antiproliferative activity against human HepG2 cells assessed as cell growth inhibition by MTT assay; format: functional, cell-based
A549 [24] = test: Antiproliferative activity against human A549 cells assessed as inhibition of cell growth at 50 uM relative to control; format: functional; parameters: scale not given: the % may be the effect or the level left
THP-1 = test: Antiproliferative activity against human THP-1 cells assessed as inhibition of cell growth at 50 uM relative to control; format: functional; parameters: scale not given: the % may be the effect or the level left
HEp-2 = test: Antiproliferative activity against human HEp-2 cells assessed as inhibition of cell growth at 50 uM relative to control; format: functional; parameters: scale not given: the % may be the effect or the level left
A549 [25] = test: Antiproliferative activity against human A549 cells assessed as cell growth inhibition by MTT assay; format: functional, cell-based
HCT-15 [26] = test: Antiproliferative activity against human HCT-15 cells assessed as cell growth inhibition by MTT assay; format: functional, cell-based
Breast carcinoma cell = test: Antiproliferative activity against human Breast cancer cell line; format: functional, cell-based
[27] = Cytotoxicity against human HCEC cells; format: toxicity, cell-based
SMMC-7721 = test: Antiproliferative activity against human SMMC-7721 cells; format: functional, cell-based
C2G cell line = test: Antiproliferative activity against mouse C2G cell line; format: functional, cell-based
MCF7 [28] = test: Anticancer activity against human MCF7 cells assessed as inhibition of cell growth; format: functional, cell-based
[29] = Anticancer activity against human Lu1 cells; format: functional, cell-based
HL-60 [30] = test: Anticancer activity against human HL-60 cells; format: functional, cell-based
P388 [31] = test: Anticancer activity against mouse P388 cells; format: functional, cell-based
MCF7 [32] = test: Potency index, ratio of dihydroartemisinin IC50 to test compound IC50 for anticancer activity against human MCF7 cells; format: functional
[33] = Potency index, ratio of dihydroartemisinin IC50 to test compound IC50 for anticancer activity against human Lu1 cells; format: functional
HL-60 [34] = test: Potency index, ratio of dihydroartemisinin IC50 to test compound IC50 for anticancer activity against human HL-60 cells; format: functional
[35] = Potency index, ratio of dihydroartemisinin IC50 to test compound IC50 for anticancer activity against mouse […] cells; format: functional
HL-60 [36] = test: Antiproliferative activity against human HL-60 cells; format: functional, cell-based
HepG2 [37] = test: Antiproliferative activity against human HepG2 cells; format: functional, cell-based

Question: What does the source list for `C[C@H]1[C@@H](CC(C[C@H]2O[C@@H]3O[C@@]4(C)CC[C@H]5[C@H](C)CC[C@@H]([C@H]2C)[C@@]35OO4)CS(=O)(=O)c2ccc(COC(=O)N(C)C)cc2)O[C@@H]2O[C@@]3(C)CC[C@H]4[C@H](C)CC[C@@H]1[C@@]24OO3` (some centres undefined)?
Answer: Ratio IC50 (HeLa [1]): 12.6; Ratio IC50 (HCT-116 [2]): 12.6; IC50 (HCT-116 [3]): 0.07 µM; IC50 (HeLa [4]): 0.07 µM; IC50 [5]: 0.07 µM; IC50 [6]: 4.9 µM; Ratio IC50 [7]: 12.6

Question: For `C[C@H]1[C@@H](Oc2ccc(CCn3ccnn3)cc2)O[C@@H]2O[C@@]3(C)CC[C@H]4[C@H](C)CC[C@@H]1[C@@]24OO3`, which IC50 (MCF7 [8]) is on record?
Answer: Its IC50 is 0.047 µM.

Question: What about the IC50 [9] of the same compound?
Answer: The IC50 was 0.047 µM.

Question: What about the IC50 (HL-60 [10]) of the same compound?
Answer: The IC50 was 0.065 µM.

Question: What about the IC50 (P388/ADR [11]) of the same compound?
Answer: The IC50 was 2.89 µM.

Question: What about the “Ratio IC50” value (P388 [12]) of the same compound?
Answer: Its value is 4.6.

Question: What about the “Ratio IC50” value (HL-60 [13]) of the same compound?
Answer: The value was 4.6.

Question: What about the “Ratio IC50” value (P388/ADR [14]) of the same compound?
Answer: The value was 4.6.

Question: Which IC50 (MCF7 [15]) does the source give for `Cc1cc(N/N=C/c2ccc(O[C@H]3O[C@@H]4O[C@@]5(C)CC[C@H]6[C@H](C)CC[C@@H]([C@H]3C)[C@@]46OO5)cc2)c2cc(Cl)ccc2n1` here?
Answer: The IC50 was 15 µM.

Question: What about the IC50 [16] of the same compound?
Answer: The IC50 was 7.5 µM.

Question: For `C[C@@H]1CC[C@H]2[C@@H](C)C(=O)O[C@@H]3O[C@@]4(C)CC[C@@H]1[C@]32OO4` [ARTEMISININ], which IC50 (MDA-MB-231 [17]) is on record?
Answer: Its IC50 is > 50 µM.

Question: What about the IC50 (MCF7 [15]) of the same compound?
Answer: Its IC50 is > 50 µM.

Question: And the IC50 (A549 [18])?
Answer: Its IC50 is > 50 µM.

Question: What about the IC50 [19] of the same compound?
Answer: Its IC50 is ≥ 40 µM.

Question: And the IC50 (Ovarian cancer cell line)?
Answer: The IC50 was ≥ 40 µM.

Question: And the IC50 (Melanoma cell line)?
Answer: The IC50 was ≥ 40 µM.

Question: And the IC50 [20]?
Answer: Its IC50 is ≥ 40 µM.

Question: What about the IC50 (K562) of the same compound?
Answer: The IC50 was 39 µM.

Question: What about the IC50 (PC-3) of the same compound?
Answer: Its IC50 is 39 µM.

Question: What about the IC50 (A-431) of the same compound?
Answer: Its IC50 is 39 µM.

Question: What about the IC50 (MDA-MB-231 [21]) of the same compound?
Answer: Its IC50 is 39 µM.

Question: What about the IC50 (COLO 205) of the same compound?
Answer: Its IC50 is 39 µM.

Question: What about the IC50 (HEK293) of the same compound?
Answer: Its IC50 is 39 µM.

Question: What about the Activity (HCT-15 [22]) of the same compound?
Answer: Its Activity is 21%.

Question: And the IC50 (HepG2 [23])?
Answer: Its IC50 is > 300 µM.

Question: What about the Activity (A549 [24]) of the same compound?
Answer: Its Activity is 21%.

Question: And the Activity (THP-1)?
Answer: Its Activity is 21%.

Question: And the Activity (HEp-2)?
Answer: Its Activity is 21%.

Question: And the IC50 (A549 [25])?
Answer: The IC50 was > 300 µM.

Question: And the IC50 (HCT-15 [26])?
Answer: The IC50 was > 300 µM.

Question: And the IC50 (Breast carcinoma cell)?
Answer: The IC50 was ≥ 40 µM.

Question: And the IC50 [27]?
Answer: The IC50 was > 50 µM.

Question: What about the IC50 (SMMC-7721) of the same compound?
Answer: Its IC50 is 0.44 µM.

Question: With `Nc1ccn([C@@H]2O[C@H](CO)[C@@H](O)C2(F)F)c(=O)n1` [GEMCITABINE] as the compound, how does the IC50 (C2G cell line) read?
Answer: The IC50 was 0.0037 µM.

Question: Which IC50 (MCF7 [15]) does the source give for `CC1CCNC(C(=O)c2ccc(-n3cc(CO[C@H]4O[C@@H]5O[C@@]6(C)CC[C@H]7[C@H](C)CC[C@@H]([C@H]4C)[C@@]57OO6)nn3)cc2)C1` (some centres undefined) here?
Answer: Its IC50 is 2.5 µM.

Question: What about the IC50 (MCF7 [28]) of the same compound?
Answer: The IC50 was 2.5 µM.

Question: What about the IC50 [29] of the same compound?
Answer: The IC50 was 2.5 µM.

Question: And the IC50 (HL-60 [30])?
Answer: Its IC50 is 2.5 µM.

Question: What about the IC50 (P388 [31]) of the same compound?
Answer: The IC50 was 2.5 µM.

Question: What about the “Ratio IC50” value (MCF7 [32]) of the same compound?
Answer: The value was 10.5.

Question: And the “Ratio IC50” value [33]?
Answer: The value was 10.5.

Question: And the “Ratio IC50” value (HL-60 [34])?
Answer: Its value is 10.5.

Question: What about the “Ratio IC50” value [35] of the same compound?
Answer: Its value is 10.5.

Question: Which results are given for `C[C@H]1[C@@H](NC(=O)CCC(=O)NO)O[C@@H]2O[C@@]3(C)CC[C@H]4[C@H](C)CC[C@@H]1[C@@]24OO3`?
Answer: IC50 (MCF7 [15]): 1.28 µg/mL; IC50 (HL-60 [36]): 1.28 µg/mL (≈ 3.21 µM); IC50 (HepG2 [37]): 1.28 µg/mL (≈ 3.21 µM)

Question: Which results are given for `C[C@H]1[C@@H](CC(C[C@H]2O[C@@H]3O[C@@]4(C)CC[C@H]5[C@H](C)CC[C@@H]([C@H]2C)[C@@]35OO4)CS(=O)(=O)c2ccc(CO)cc2)O[C@@H]2O[C@@]3(C)CC[C@H]4[C@H](C)CC[C@@H]1[C@@]24OO3` (some centres undefined)?
Answer: Ratio IC50 (HeLa [1]): 12.6; Ratio IC50 (HCT-116 [2]): 12.6; IC50 (HCT-116 [3]): 0.07 µM; IC50 (HeLa [4]): 0.07 µM; IC50 [5]: 0.07 µM; IC50 [6]: 57.5 µM; Ratio IC50 [7]: 12.6
